Consider one compound from PMC9481570, “A small molecule antagonist of SMN disrupts the interaction between SMN and RNAP II” (Nature Communications, 2022).

Bounds are passed on as bounds.

For one assay, the target named is T1, ZGPAT (Homo sapiens, UniProt Q8N5A5).
T1 construct: ZGPAT (aa 120–271); His (N, cleaved yes); made in house; host or cells: E. coli BL21 (DE3) Codon plus RIL
Briefly: ITC binding to ZGPAT. The note with it: Fig. 1c. The source says: (§1) The coding DNA fragments of following Tudor domains were cloned into pET28-MHL vector: SMN (aa 82–147), UHRF1 (aa 126–285), SMNDC1 (aa 53–130), TDRD3 (aa 554–611), SND1 (aa 650–910), TDRD2 (aa 327–420), FXR1 (aa 2–132), PHF1 (aa 28–87), SGF29 (aa 115–293), JMJD2A (aa 897–1101), 53BP1 (aa 1483–1606), SETDB1 (aa 190–410), LBR (aa 1–67), ZGPAT (aa 120–271). The coding regions of chromodomain of CBX7 (aa 8–62), PWWP domain of DNMT3A (aa 275–417), WD40 repeats of WDR5 (aa 24–334) and CW domain of ZCWPW2 (aa 21–78) were also subcloned into pET28-MHL vector to generate N-terminally His-tagged fusion protein. The MBT repeats of L3MBTL1 (aa 200–522) and L3MBTL2 (aa 170–625) were subcloned into pET28GST-LIC vector to generate N-terminally GST-His-tagged fusion protein. All the plasmids were generated by ligase independent cloning (Vazyme Biotech, C112 or ABclonal Technology, RK21020). […] The molecular weight of all protein samples was measured by mass spectrometry.
(§2) For the ITC measurement, the concentrated proteins were diluted into 20 mM Tris-HCl, pH 7.5, 150 mM NaCl (ITC buffer); the lyophilized compounds were dissolved in the same buffer, and the pH value was adjusted by adding 2 M NaOH or 2 M HCl. […] Compound concentrations were calculated from the mass and the volume of the solvent. […]

The target in another assay is T2, 53BP1 (Homo sapiens, UniProt Q12888).
T2 construct: 53BP1 (aa 1483–1606); His (N, cleaved yes); made in house; host or cells: E. coli BL21 (DE3) Codon plus RIL
Briefly: ITC binding to 53BP1. Particulars: Fig. 1c.
Excerpt: as §1, §2

The target in another assay is T3, SND1_F740W (Homo sapiens, UniProt Q7KZF4, F740W).
T3 construct: SND1 (aa 650–910); His (N, cleaved yes); made in house; host or cells: E. coli BL21 (DE3) Codon plus RIL
Briefly: ITC binding to SND1 mutant F740W. Particulars: Supplementary Fig. 11c, iTC-200; read-out: Kd, ITC binding curve, SND1_F740W.
Excerpt: as §1, §2

For another assay, the target named is T4, SMN_W102A (Homo sapiens, UniProt Q16637, W102A).
T4 construct: SMN (aa 82–147); His (N, cleaved yes); made in house; host or cells: E. coli BL21 (DE3) Codon plus RIL
Briefly: ITC binding to SMN Tudor mutant W102A. The note with it: Fig. 3d.
Excerpt: as §1, §2

In another assay the target is T5, SMN_Y127A (Homo sapiens, UniProt Q16637, Y127A).
T5 construct: cloned into pET28-MHL vector: SMN (aa 82–147); His (N, cleaved yes); made in house; host or cells: E. coli BL21 (DE3) Codon plus RIL
Briefly: ITC binding to SMN Tudor mutant Y127A. Particulars: Fig. 3d.
Excerpt: as §1, §2

Another assay addresses T6, L3MBTL2 (MBT) (Homo sapiens, UniProt Q969R5).
T6 construct: L3MBTL2 (aa 170–625); GST-His (N, cleaved yes); made in house; host or cells: E. coli BL21 (DE3) Codon plus RIL
Briefly: ITC binding to MBT repeats of L3MBTL2. The note with it: Fig. 1c.
Excerpt: as §1, §2

T6 sequence (Q969R5 170-625): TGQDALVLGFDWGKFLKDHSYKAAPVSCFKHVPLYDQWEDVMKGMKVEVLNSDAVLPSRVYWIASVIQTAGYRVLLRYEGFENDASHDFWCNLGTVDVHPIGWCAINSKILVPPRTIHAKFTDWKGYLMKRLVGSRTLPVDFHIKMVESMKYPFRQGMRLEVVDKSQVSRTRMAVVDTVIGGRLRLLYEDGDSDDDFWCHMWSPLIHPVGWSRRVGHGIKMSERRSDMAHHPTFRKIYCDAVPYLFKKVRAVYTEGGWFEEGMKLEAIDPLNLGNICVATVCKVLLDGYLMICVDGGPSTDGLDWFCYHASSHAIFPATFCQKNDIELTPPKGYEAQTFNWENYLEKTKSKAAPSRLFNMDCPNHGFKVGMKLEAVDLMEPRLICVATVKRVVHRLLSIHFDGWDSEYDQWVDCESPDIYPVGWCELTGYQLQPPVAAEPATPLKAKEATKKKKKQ
T5 sequence (Q16637 82-147 Y127A): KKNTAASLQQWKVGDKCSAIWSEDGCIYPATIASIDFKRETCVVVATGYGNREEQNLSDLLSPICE
T4 sequence (Q16637 82-147 W102A): as the sequence (Q16637 82-147 Y127A) above, with W21A, A46Y counted along it
T1 sequence (Q8N5A5 120-271): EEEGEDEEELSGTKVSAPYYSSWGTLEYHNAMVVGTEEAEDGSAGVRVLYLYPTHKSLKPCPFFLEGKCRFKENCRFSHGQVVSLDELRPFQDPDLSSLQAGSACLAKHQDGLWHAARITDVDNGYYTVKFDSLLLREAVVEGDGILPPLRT
T3 sequence (Q7KZF4 650-910 F740W): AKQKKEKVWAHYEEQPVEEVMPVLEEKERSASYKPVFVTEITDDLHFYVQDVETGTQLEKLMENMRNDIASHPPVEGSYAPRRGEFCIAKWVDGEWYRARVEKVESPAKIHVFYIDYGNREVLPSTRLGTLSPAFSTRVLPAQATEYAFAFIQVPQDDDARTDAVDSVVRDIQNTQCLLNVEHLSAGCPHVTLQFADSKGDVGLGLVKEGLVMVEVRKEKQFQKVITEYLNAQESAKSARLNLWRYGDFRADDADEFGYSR
T2 sequence (Q12888 1483-1606): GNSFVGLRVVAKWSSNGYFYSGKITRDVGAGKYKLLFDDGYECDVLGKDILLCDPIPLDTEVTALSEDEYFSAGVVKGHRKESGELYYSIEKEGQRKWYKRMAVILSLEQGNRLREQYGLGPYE

In the case of `Cn1c2c(c(=N)c3c1CCC3)CCC2` [Compound 1, 4-methyl-2,3,4,5,6,7-hexahydrodicyclopenta[b,e]pyridin-8(1H)-imine], the Kd is over 244 µM on ZGPAT; over 244 µM on 53BP1; 38 ± 8 µM on SND1_F740W; over 244 µM at SMN_W102A; over 100 µM at SMN_Y127A; over 244 µM on L3MBTL2 (MBT).
